Assays:
[1] = system: Acinetobacter baumannii ATCC 17978; test: Bacterial adherence assay on human bronchial epithelial NCI-H292 cells; format: cell-based
Experimental: Bacterial adherence assay was performed as described ([…]; herein incorporated by reference in its entirety). Human bronchial epithelial cell line NCI-H292 (ATCC CRL-1848; American Tissue Culture Collection, Rockville, Md., USA) were cultured in a petri dish at 37° C. in RPMI 1640 medium (Gibco BRL, Grand Island, N.Y., USA), supplemented with 25 mM HEPES, 2 mM L-glutamine, penicillin G 100,000 U/L, streptomycin 50 mg/L and 10% (v/v) of fetal bovine serum (Gibco BRL), in a humidified atmosphere containing 5% (v/v) of CO2.
When NCI-H292 cells covered about 80% of the bottom of petri dish, the medium was replaced with 0.25% trypsin-EDTA (1689649, MP Biomedicals, Solon Ohio) and the petri dish was incubated at 37° C. for 10 min. NCI-H292 Cells were collected by cell scraper and washed with fresh RPMI 1640 medium three time by centrifuging at 300×g for 3 min. Washed cells were adjusted to the concentration of 1×10^5 cells per ml with fresh RPMI 1640 and 2 ml of cell solution were transferred to each well of a 12-well plate, which contained a 13-mm-diameter plastic coverslip (Thermanox, Nunc, Rochester, N.Y., USA) in each well. The cells were incubated at 37° C. for about 3 days until cells covered about 90% of coverslip and were then washed with phosphate buffered saline (PBS) three times. Acinetobacter baumannii ATCC 17978 grown overnight in Luria Bertani (LB) medium were collected and washed three times with fresh RPMI 1640 medium by centrifuging at 6,000 rpm for 3 min. Bacterial cells were adjusted to the concentration of 1×10^8 CFU/mL (OD600=0.05) and mixed with reagents (400 μM of dATP, or 200 mU/ml of apyrase) as necessary. Each cell monolayer was infected with 1 mL of bacterial suspension and incubated for 60 min at 37° C. in a CO2 5% v/v atmosphere. For damaged cell assays, NCI-H292 cells (around 5%) in the central area of plastic coverslips were damaged by tip of a knife before the infection performed. […] The number of bacteria adhering to 100 cells was determined. […]

Acinetobacter biofilms = test: Biofilm biomass, crystal violet staining in 96-well plates; format: cell-based; conditions: 16 hours incubation
Experimental: (§1) Overnight LB-grown culture was diluted 100 times with 10% LB medium, and 100 μL of the dilution was inoculated into each well of 96-well plates. dATP, dGTP, DNase I, or apyrase was added into wells to result in the desired concentrations. An equivalent volume of 10% LB medium was added into wells as control. Plates were covered with lids and incubated at 30° C. for 16 hours before optical density (OD) was measured at 600 nm for the record of growth. Fifteen microliters of 0.1% crystal violet solution was added into each well for crystal violet staining (CV staining) After 15 min of staining, each well was washed gently three times with 100 μl of PBS buffer. Supernatant in each well was removed and 100 μl of 75% ethanol was added to dissolve crystal violet before measuring optical density at 600 nm (CV OD) for the quantification of biofilm biomass.
(§2) For visualization of biofilm structure (FIG. 2), biofilms were developed as described above. After 16 hours of incubation, supernatant was removed from each well and 100 μl of PBS buffer containing 0.1 mM SYTO-9 green, 10 mM Propidium Iodide (PI) was added for staining in dark for 15 min. Cell images were acquired with a Perkin Elmer UltraView confocal microscope system equipped with an Argon-Krypton laser. Images were taken with an oil immersion 60× objective lens in two channels (488 nm excitation for SYTO9 and 568 nm excitation for PI). […]

S. maltophilia = test: Biofilm formation, crystal violet staining in 96-well plates; format: cell-based; conditions: 400 μM dATP
Experimental: as §1

S. aureus = test: as above; format: cell-based; conditions: 400 μM dATP
Experimental: as §1

Acinetobacter [2] = test: Bacterial initial attachment assay; format: cell-based; conditions: 125 μM dATP; visualized at 2 h, 4 h and 8 h post-treatment
Experimental: Bacterial initial attachment assay: 1% of an overnight culture was inoculated into the wells of 96-well glass bottom microplate containing 100 μl of 10% LB media, after predetermined incubation time, suspension was removed from each well and rinsed with PBS buffer for three times then biofilm samples were stained with LIVE/DEAD BacLight Bacterial Viability Kits (cat. L7007, Invitrogen) following the instructions in the manual. All microscopic observations and image acquisitions were performed with Olympus IX71 equipped with detectors and filter sets for monitoring of SYTO-9 and propidium iodide (PI). Images were obtained using a 60× objective.

Acinetobacter [3] = test: Extracellular DNA (eDNA) extraction and quantification; format: cell-based
Experimental: DNA extraction and quantification: Biofilms were developed as mentioned above for 16 hours and biofilm cells were resuspended with 0.9% NaCl solution, homogenized for 1 min and utilized for eDNA extraction. Planktonic cells were incubated at 30° C. for 8 hours with a 1% of inoculation and cells were washed with fresh 10% of LB broth three times before resuspension in the same volume of 10% of LB broth or 10% LB broth supplemented with 400 μM of dATP. The cells solutions were then incubated at 30° C. for another 2 hour and were ready for eDNA extraction. Biofilm cells suspension and planktonic cultures were treated as previously reported (27) for DNA extraction. Briefly, cell solution was treated with Dispersin B (20 μg/ml) at 37° C. for 30 min followed by treatment of proteinase K (5 μg/ml) for another 30 min at 37° C. Treated cell solution was filtered through a 0.2 μm syringe filter (PES, Water & Process Technologies), elute was used to extract the extracellular DNA by using ethanol precipitation. DNA was dissolved in 50 μl of sterile MilliQ water and the concentration of DNA was measured by using the PicoGreen dsDNA Quantitation Kit (Molecular Probes, Invitrogen).

E. coli = test: Biofilm formation, crystal violet staining in 96-well plates; format: cell-based; conditions: 400 μM dATP
Experimental: as §1, §2

Acinetobacter cultures = test: CytoTox-Glo cytotoxicity assay (programmed cell death); format: cell-based; conditions: 24 h post-treatment
Description: Cytotoxicity Assay: Planktonic cells and biofilm cells were collected as described above and washed with PBS buffer three times. Cell concentration was adjusted to 1-1.5×10^8 CFU/ml with PBS buffer and samples were ready for dead-cell protease activity, which had been released from cells that had lost membrane integrity, by using CytoTox-Glo™ Cytotoxicity Assay (Cat. G9291. Promega. Madison, Wis.) following the instructions by the manufacturer.

Acinetobacter baumannii = Acinetobacter baumannii adherence in mouse wound infection model; format: in vivo, C57BL/6 mice; conditions: burn wound sites treated with 400 mU/mL apyrase during inoculation
Experimental: Female pathogen-free C57BL/6 mice (Harlan, Indianapolis, Ind.), 12 weeks old, weighing approximately 20-23 grams were used in all experiments. Mice were housed in standard cages at the University Laboratory Animals Facility and were allowed to acclimate for 7 days after delivery prior to the experiment. The animals were kept on a 12 hour light cycle and were provided with rodent chow (LabDiet 5001, PMI Int'l., Richmond, Ind.) and water ad libitum throughout the study.
Pentobarbital (Nembutal, Ovation Pharmaceuticals, Inc., Deerfield, Ill., manufactured by Hospira, Lake Forest, Ill.) was administered intraperatonially (50 mg/kg IP) for anesthesia. During the study, all mice were singly housed and all received 0.1 mg/kg buprenorphine (Buprenex; Reckitt Benckiser Pharmaceuticals Inc., Richmond, Va.) subcutaneously (SQ) twice daily for post-burn pain control.
The skin over the lumbrosacral and back region was clipped using a 35-W model 5-55E electrical clipper (Oyster-Golden A-S, Head no. 80, blade size 40). Depilatory cream (Nair® lotion) was applied for about 1.5 minutes, then wiped off with a damp paper towel. Skin was rinsed under the faucet in lukewarm water and then blotted dry.
The first buprenorphine dose (67 ul/20 g, 83 ul/25 g mouse or 0.1 ug/g) was administered SQ under the skin of the upper back.
All 8 mice were burned. […]

## Nc1ncnc2c1ncn2[C@H]1C[C@H](O)[C@@H](COP(=O)(O)OP(=O)(O)OP(=O)(O)O)O1 [dATP, deoxyadenosine triphosphate]
[1]; 400 μM dATP in media
  aggregate formation on human bronchial epithelial cells: promoted aggregate formation
[1]; 400 μM dATP in media, 1 hour after incubation
  increase of A. baumannii adherence to human bronchial epithelial cells: about 100 fold
Acinetobacter biofilms
  biofilm biomass: stimulated biofilm biomass
S. maltophilia
  biofilm formation: increased biofilm formation
S. aureus
  biofilm formation: increased biofilm formation
Acinetobacter [2]
  rates of attachment in initial biofilm formation: accelerated rates of attachment
Acinetobacter [3]; biofilm cultures, more pronounced effect than in planktonic
  extracellular DNA (eDNA) release: Stimulation of extracellular DNA (eDNA)
Acinetobacter [3]; planktonic cultures
  extracellular DNA (eDNA) release: Stimulation of extracellular DNA (eDNA)
E. coli
  biofilm formation: increased biofilm formation
Acinetobacter cultures; biofilm form
  programmed cell death (Cytotox-glo): increased levels of programmed cell death
Acinetobacter cultures; planktonic form
  programmed cell death (Cytotox-glo): increased levels of programmed cell death

## apyrase
[1]; Apyrase 200 mU/ml
  effect on increased bacterial adherence (dATP or damaged cells): completely arrested
Acinetobacter baumannii
  adherence during initial stages of biofilm formation, cell count per gram of skin tissue: decreased adherence
Acinetobacter biofilms
  biofilm biomass: reduced biomass
